Test results from publication PMC2603313, “Direct Inhibition of GSK3β by the Phosphorylated Cytoplasmic Domain of LRP6 in Wnt/β-Catenin Signaling” (PLoS ONE, 2008).
Values belong to the molecule of their own block, whether it stands above or below them. Square brackets hold non-standard residues; d marks the D form. Ends that are not written are not given here. pT = C[C@@H](OP(=O)(O)O)[C@H](N)C(=O)O; pS = N[C@@H](COP(=O)(O)O)C(=O)O

Key:
[1] = tested on: GSK3β and CK1; assay: Phosphorylation of GST-fusion proteins by GSK3β and CK1; type: biochemical; details: data not shown
[2] = molecular target: catalytic domain of mouse GSK3β (residues 27–393) (mouse) (UniProt Q9WV60)
[3] = molecular target: GSK3β catalytic domain, 27-393 (UniProt Q9WV60); assay: inhibition of GSK3β kinase activity, band shift; details: reference: non-phosphorylated peptide …; sites S1490
[4] = molecular target: T1, GSK3β (Mus musculus, UniProt Q9WV60); assay: In vitro GSK3β activity assay with synthetic peptides (phosphorylation of primed β-catenin N-terminal fragment); type: biochemical; details: primed β-catenin N-terminal fragment 7 µM, 1 mM ATP, pH 8.0, 30 min at 37°C, 4–7 independent experiments
T1 construct: The catalytic domains of mouse GSK3β (residues 27–393) and CK1ε (residues 1–319) were expressed and purified; made in house
Source text: We synthesized one dually-phosphorylated (NPPPpSPApTERSH, where pS or pT designates a phosphorylated Ser or Thr residue), two singly-phosphorylated (NPPPSPApTERSH and NPPPp[…]) and one non-phosphorylated ([…]) peptides derived from the first PPPSPxS motif of LRP6 (Fig. 1A). To measure the GSK3β activity toward β-catenin in vitro, we utilized a β-catenin N-terminal fragment (residues 1–133), whose Ser45 was prephosphorylated by CK1, as a substrate (Ha et al., 2004). Each synthetic peptide was added to a reaction mixture containing the purified GSK3β enzyme and the substrate β-catenin N-terminal fragment. The GSK3β activity was determined through measurement of the intensity of the supershifted (retarded) β-catenin bands (Fig. S3), which represent the phosphorylated product species (Fig. S4), on an SDS-polyacrylamide gel (Figs. S3, S4, S5, S6, S7). […] This corresponds well with the results of Zeng et al., who reported that the first Ser residue in the PPPSPxS motif has a more important role in Wnt/β-catenin signaling than the second Ser residue.
The catalytic domains of mouse GSK3β (residues 27–393) and CK1ε (residues 1–319) were expressed and purified as previously described. The N-terminal region (residues 1–133) of β-catenin was expressed in Escherichia coli as a GST-fusion protein with a TEV protease cleavage site and then purified using Glutathione-agarose. Subsequently, the GST tag was cleaved using recombinant TEV protease and was removed by repeated HiTrapQ anion-exchange chromatography. The N-terminal region of β-catenin was then phosphorylated by incubation with the catalytic domain of CK1ε (0.28 mg/ml) at 37°C for 20 min in 50 mM Tris buffer (pH 8.0) containing 10 mM MgCl2, 10 mM 2-mercaptoethanol, and 2 mM phenylmethylsulfonylfluoride. The phosphorylated β-catenin fragment was then further purified using HiTrapQ anion-exchange chromatography to remove the CK1ε enzyme. […]

[5] = tested on: Xenopus embryos; assay: Microinjection into Xenopus embryos, second body axis formation; type: in vivo, Xenopus laevis; details: peptide 1 ng co-injected with XWnt8 0.5 pg
Source text: It is well established that Wnt signaling reduces GSK3β activity during development of the Xenopus embryo [24], and that the suppressed activity of GSK3β induces a second body axis in the Xenopus embryo in the response to Wnt. To examine the in vivo effect of the PPPSPxS motif on Wnt/β-catenin signaling, we injected the synthetic peptides into Xenopus embryos, along with a small amount of Xenopus Wnt8 that is insufficient to induce second body axis formation on its own. […] It is likely that a slight reduction in the GSK3β activity due to the activity of the exogenous Wnt on the endogenous LRP6/5 is required for the peptide to cause a sufficient inhibition of GSK3β to trigger Wnt/β-catenin signaling. Moreover, even if the amount of peptide injected is well above physiological concentrations, the effect is specific to the phosphorylated peptide.
Figure 3 The effect of the injected PPPSPxS peptides to the Xenopus embryos. Xenopus Wnt8 protein (XWnt8; 0.5 pg) was co-microinjected with each peptide (1 ng) into the ventrovegetal region of Xenopus embryos. […]
Xenopus laevis was purchased from Xenopus I and Nasco. […] In vitro fertilization was performed as described previously, and the developmental stages of the embryos were determined according to Nieuwkoop and Faber. […]

[6] = tested on: GSK3β; details: toward full-length β-catenin; cited from earlier work
Method: We next sought to determine if the phosphorylated LRP6 motifs are capable of inhibiting GSK3β in the Axin complex. An in vitro kinase assay with Axin-bound GSK3β was performed by adding the purified GSK3β binding domain (GBD) of Axin to the reaction mixture.

[7] = molecular target: T2, catalytic domain of mouse GSK3β (residues 27–393) (mouse, UniProt Q9WV60 27-393); assay: steady-state kinetics of enzyme inhibition (GSK3β kinase assay, band shift on SDS-PAGE); apparent Ki; 50 mM Tris pH 8.0, 10 mM MgCl2, 10 mM 2-mercaptoethanol, 1 mM ATP, 8 ng GSK3β catalytic domain, 6 µM primed β-catenin N-terminal fragment (1-133), 37°C; peptide 0, 1, 3, 10, 30 µM; (V0/Vi)−1 = [peptide]/Ki; details: both partners purified
T2 construct: GSK3β (glycogen synthase kinase 3 beta), mouse, catalytic domain, residues 27-393; also called recombinant GSK3β catalytic domain; source: recombinant, expressed and purified as previously described [32]

[8] = molecular target: T2, catalytic domain of mouse GSK3β …; assay: far-Western, overlay or dot blot; 15 µg GST-miniCL on PVDF; membrane incubated with GSK3β (2 µg/ml) and/or His-Axin (12 µg/ml) in TBST containing 1% skim milk; details: both partners purified

Molecule: GST-PPPAPxS: GST-fused LRP6 PPPAPxS, residues 1485–1497 with the substitution at Ser1490 (LNPPPAPATERSH; also: GST-fused, end not given here)
Phosphorylation by GSK3β and CK1 [1]: not phosphorylated

Molecule: GST-PPPSPxS: GST-fused LRP6 PPPSPxS, residues 1485–1497 (LNPPPSPATERSH; also: GST-fused, end not given here)
Phosphorylation by GSK3β and CK1 [1]: not phosphorylated

inhibition of in vitro GSK3β activity at above 2.5 µM of GST-Axin GBD [2]: 20%
Molecule: GST-fused mouse Axin GBD (GSK3β binding domain, residues 512–530) (domain or fragment)

binding against the reference [3]: gained
Molecule: LRP6 (from UniProt O75581) pS1490 peptide NPPPpSPATERSH

Molecule: NPPPSPATERSH [PPPSPxS, non-phosphorylated peptide derived from the first PPPSPxS motif of LRP6]
Inhibitory effect on GSK3β activity toward β-catenin ([4]; at concentrations up to 100 µM): did not show any inhibitory effect on the GSK3β activity
Induction of second body axis [5]: did not

Molecule: NPPPpSPATERSH [PPP(p)SPxS, singly-phosphorylated peptide (first Ser/Thr) derived from the first PPPSPxS motif of LRP6]
Inhibitory effect on GSK3β activity toward β-catenin ([4]; at 100 µM): strong inhibitory effect close to that of the dually-phosphorylated peptide
Induction of second body axis [5]: induced the second body axis with an efficiency comparable to that of the dually-phosphorylated peptide

Molecule: full-length Axin: full-length Axin scaffold protein
Effect on GSK3β activity [6]: increases GSK3β activity

Ki [7]: 13 µM
B1: dually-phosphorylated LRP6 PPPSPxS peptide (NPPPpSPApTERSH) (peptide)
peptide: {biotin (sulfo-NHS-SS-biotin)}-NPPP[pS]PA[pT]ERSH-NH2
notes: LRP6, first PPPSPxS motif; The biotin is joined by a disulfide that can be cut by reduction; the kinase buffer holds 10 mM 2-mercaptoethanol; also called PPP(p)SPx(p)S; dually-phosphorylated peptide; source: synthetic peptide (solid-phase synthesis)

binding result [8]: binds
B2: GST-fused LRP6 miniCL (residues 1470–1510 of human LRP6), not phosphorylated (domain or fragment, UniProt O75581 1470-1510, looked up)
chain: SSSSSSTKGTYFPAILNPPPSPATERSHYTMEFGYSSNSPS
modifications: also: GST fusion (GST left off)
notes: LRP6, human, intracellular fragment miniCL, residues 1470-1510 (Ser/Thr rich cluster and first PPPSPxS motif); also called GST-miniCL; LRP6 miniCL region; source: E. coli, purified (Glutathione-agarose, HiTrapQ)
